{"source": "patent US11198741B2", "about": "“Medicines for topic use based on sulfated hyaluronic acid as activating or inhibiting agent of the cytokine activity” (Fidia Farmaceutici S.p.A., priority 2009, dated 2021)", "key": {"IL-6 receptor": {"biological_target": "T1, IL-6 receptor (Homo sapiens, UniProt P08887)", "T1 construct": "the line of human myeloma U266 was used, sensitive to the cytotoxic activity of IL-6, expressing its relative receptor; endogenous in cells; host or cells: U266 human myeloma (whole cells)", "T1 sequence (P08887 20-468)": "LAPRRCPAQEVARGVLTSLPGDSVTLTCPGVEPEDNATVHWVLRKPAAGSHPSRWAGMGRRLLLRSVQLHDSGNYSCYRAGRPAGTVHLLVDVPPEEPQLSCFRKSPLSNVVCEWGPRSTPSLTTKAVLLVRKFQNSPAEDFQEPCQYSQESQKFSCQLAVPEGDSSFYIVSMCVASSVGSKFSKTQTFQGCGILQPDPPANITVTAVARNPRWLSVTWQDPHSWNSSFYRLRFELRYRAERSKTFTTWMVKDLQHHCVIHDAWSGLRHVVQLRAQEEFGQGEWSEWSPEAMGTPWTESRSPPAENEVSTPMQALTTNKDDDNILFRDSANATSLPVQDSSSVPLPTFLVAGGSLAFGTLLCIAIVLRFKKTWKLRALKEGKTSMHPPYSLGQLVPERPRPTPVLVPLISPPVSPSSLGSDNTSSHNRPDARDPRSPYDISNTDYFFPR", "experiment": "Inhibition of the binding of 125I-IL-6 to its receptor in U266 myeloma cells (Radioligand Binding)", "details": "125I-IL-6 0.08 nM, sample 1 mg/ml, 4° C. 16 hours, both medium and low MW", "text": "These experiments were effected to evaluate the effectiveness of the samples tested (prepared according to Examples 1-3 and 4) on the capacity of inhibiting the binding of IL-6 to its receptor expressed in human myeloma U266, normally used in vitro for this type of experiment, carried out with iodinated cytokine components for an evaluation in Radioligand Binding assays. The experimental procedure was effected as described in Taga T. et al., J Exp Med, 1987, 166:967-981. In short, the line of human myeloma U266 was used, sensitive to the cytotoxic activity of IL-6, expressing its relative receptor. […] At the end of the incubation, the cells were washed with phosphate buffer, centrifuged at 9,000 rpm and the pellet counted in a γ-counter."}, "[1]": {"assay_type": "in vitro ADME", "protocol": "The skin used for effecting the experiments is obtained from the abdomen of patients between 30 and 50 years old, subjected to surgical abdominal reductions. The sections of skin with a complete thickness are frozen after the surgical intervention and preserved at −20° C. until the moment of the experiment, in which the samples are defrozen at room temperature and accurately separated from the adipose tissue. The skin is divided into square sections of 2.5 cm^2, immersed for a minute in water at a temperature of 60° C. and with the help of specific tweezers, the corneal layer and epidermis (SCE) are accurately separated from the underlying tissues. The samples obtained are analyzed with an optical microscope and discarded if punctures are found. The SCE is assembled in the lower part of a Franz cell with the epidermis facing downwards and the corneal layer in contact with the donor solution which is situated above. The permeation area is a circular surface of 0.636 cm^2. […] Each experiment is effected triply and the result is intended as the average of the 3, expressed as quantity of analyte which has crossed the surface unit of skin after 24 hours. […] The concentration of diclofenac was determined through reverse-phase HPLC analysis on an apparatus Agilent 1200 Series and UV detection (254 nm), C18 column, eluent acetonitrile/water/acetic acid 50/46/4 with a flow of 1.2 ml/min."}, "[2]": {"experiment": "Hydrating and protective activity of creams on the forearm (corneometer, Visioscan)", "assay_type": "in vivo", "details": "human subjects", "protocol": "20 human subjects aged between 18 and 70 years, with no skin pathologies and pharmacological treatment underway, were treated daily with certain and constant quantities of the products tested, at the level of the forearm. The experimental products were: control: consisting of a hydrating base cream base cream (as control) containing HA 200 KD 01% base cream (as control) containing HAS3 01%, prepared according to Example 1-2 […]"}, "IL-2": {"system": "IL-2", "experiment": "Protein synthesis of IL-2 in human PBMC (SearchLight array)", "details": "not stimulated or stimulated with LPS or PHA (10 μg/ml), 24 hours, FIG. 6: HAS1 0.1 mg/ml, HAS3 1 mg/ml, vs HA", "method": "(§1) For these experimentations, mononucleate cells of human peripheral blood (PBMC) were adopted, deriving from various donors for evaluating the effect of HAS on the production of the cytokines listed above, using:\n(§2) The separation of the PBMC (Bøyum A., Scand J Clin Lab Invest 21 Suppl, 1968, 97:77-89) was effected using the product Ficoll-Paque PLUS (GE Healthcare) and following the protocol indicated by the supplier. At day zero 100,000 cells were plated per well (using plates with 96 wells) in 200 μl of medium RPMI 1640, to which 10% of fetal bovine serum, HEPES 10 mM, Glutamine 2 mM, 1% Penicillin-Streptomycin 100 U/ml, had been added. […] The cells were treated separately with the three compounds at a concentration of 0.1 mg/ml or 1 mg/ml. After 24 hours of incubation at 37° C. (5% CO2), 100 μl of supernatant were taken from each well in order to analyze the production of IL-2, IL-7, IL-10 and IL-12.\n(§3) The quantification of the inflammation mediators was effected by means of the SearchLight® technology, using a Custom Human 9-flex Array plate following the protocol indicated by the supplier in the technical card."}, "IL-7": {"system": "IL-7", "experiment": "Protein synthesis of IL-7 in human PBMC (SearchLight array)", "details": "not stimulated or stimulated with LPS or PHA (10 μg/ml), 24 hours, FIG. 7: 1 mg/ml, vs HA", "method": "as §1, §2, §3"}}}
{"substance": "sulfated hyaluronic acid degree 3 [HAS3]", "values": [{"measurement": "inhibition of the binding of IL-6 to its receptor", "setting": "IL-6 receptor", "result": 100, "unit": "%"}, {"measurement": "total permeate quantity of diclofenac in 24 h", "setting": "[1]", "result": "doubling"}, {"measurement": "skin roughness index", "setting": "[2]; after 7 days of treatment, base cream containing HAS3 01%, with respect to the controls", "result": "significantly diminished"}, {"measurement": "hydrating effect of the skin (corneometer)", "setting": "[2]; daily, T7 vs T0, base cream containing HAS3 01%, vs base cream and cream containing HA", "result": "greater hydrating effect"}, {"measurement": "synthesis of IL-2", "setting": "IL-2", "result": "significantly reducing"}, {"measurement": "synthesis of IL-7", "setting": "IL-7", "result": "significantly reducing"}]}
